Reference: patent US20240016773A1, “COMPOSITIONS AND METHODS FOR DIAGNOSIS AND TREATMENT OF CONDITIONS RELATED TO AGING” (EPITRACKER, INC., priority 2018, published 2024)

How the values were obtained:
[1] = tested on: CD19+ B cells and peripheral blood mononuclear cells stimulated with α-IgM and TCR ligands; experiment: First cell-based system: T cell-dependent activation of B cells (allergy); set-up: species or system human
Experimental: This study examined the impact of synthetic pentadecanoic acid (C15:0) at four concentrations (740 nm and 2.2, 6.7, and 20 μM) on three primary human cell-based activity systems that were exposed to agents that mimicked allergic, thrombotic, and fibrotic disease states. In general, protein-based biomarkers in these systems were measured and compared with controls. Pentadecanoic acid was considered ‘active’ when 2 or more consecutive concentrations changed a given biomarker in the same direction relative to vehicle controls, were outside of the significance envelope of internal controls, and had at least one concentration with an effect size greater than 20% (log 10 ratio >0.1).
The first cell-based system recapitulated T cell-dependent activation of B cells that occurs in germinal centers to mimic allergy disease states. CD19^+ B cells and peripheral blood mononuclear cells were stimulated with α-IgM and TCR ligands and incubated with pentadecanoic acid for 168 hours. In addition to controls that were not treated with pentadecanoic acid, a negative, non-stimulated system was also included. Secreted IgG was measured and compared with controls.

[2] = tested on: BT system: peripheral blood mononuclear cells, B cells (α-IgM, TCR ligands); experiment: BioMAP Diversity PLUS, BT system; assay type: cell-based, human
Excerpt: (§1) The Diversity PLUS panel allows test agent characterization in an unbiased way across a broad set of systems modeling various human disease states. These systems are designed to model complex human tissue and disease biology of the vasculature, skin, lung, and inflammatory tissues. Quantitative measurements of 148 biomarker activities across this broad panel, along with comparative analysis of biological activities from known bioactive agents, were used to predict and compare the efficacy and function of each selected compound at four concentrations (740 nm and 2.2, 6.7 and 20 μM).
(§2) BioMAP systems are constructed with one or more primary cell types from healthy human donors, with stimuli (such as cytokines or growth factors) added to capture relevant signaling networks that naturally occur in human tissue or pathological conditions. Vascular biology is modeled in both a Th1 (3C system) and a Th2 (4H system) inflammatory environment, as well as in a Th1 inflammatory state specific to arterial smooth muscle cells (CASM3C system). Additional systems recapitulate aspects of the systemic immune response including monocyte-driven Th1 inflammation (LPS system) or T cell stimulation (SAg system), chronic Th1 inflammation driven by macrophage activation (lMphg system) and the T cell-dependent activation of B cells that occurs in germinal centers (BT system). The BE3C system (Th1) and the BF4T system (Th2) represent airway inflammation of the lung, while the MyoF system models myofibroblast-lung tissue remodeling. Lastly, skin biology is addressed in the KF3CT system modeling Th1 cutaneous inflammation and the HDF3CGF system modeling wound healing.
(§3) Each test agent generates a signature BioMAP profile that is created from the changes in protein biomarker readouts within individual system environments. Biomarker readouts (7-17 per system) are selected for therapeutic and biological relevance, are predictive for disease outcomes or specific drug effects and are validated using agents with known mechanism of action (MoA). Each readout is measured quantitatively by immune-based methods that detect protein (e.g., ELISA) or functional assays that measure proliferation and viability. BioMAP readouts are diverse and include cell surface receptors, cytokines, chemokines, matrix molecules and enzymes. In total, the Diversity PLUS panel contains 148 biomarker readouts that capture biological changes that occur within the physiological context of the particular BioMAP system. Specific BioMAP activities have been correlated to in vivo biology, and multiparameter BioMAP profiles have been used to distinguish compounds based on MoA and target selectivity across diverse physiological systems.
(§4) Activated BioMAP systems were incubated with each compound for 24 to 72 hours. Protein-based biomarkers from activated cell systems were measured and compared with non-treated control systems.

[3] = tested on: obese mouse model (C57BL/6J mice fed a high fat diet); experiment: High fat diet obese mouse model, daily oral pentadecanoic acid; assay type: in vivo
Experimental: This study examined the impact of daily oral administration of synthetic pentadecanoic acid (C15:0) on total and LDL cholesterol in an obese mouse model. Twenty C57BL/6J mice were fed a high fat diet (HFD) (D12492, 60% kcals fat) for 8 weeks. Study mice were then divided into the following two groups of ten: vehicle controls and pentadecanoic acid—treated (5 mg/kg body weight). The test article was a synthetic powder form stable at room temperature and purchased from Sigma-Aldrich (Products W433400 (≥99% C15:0). The test article was provided daily via gastric gavage for 12 weeks (84 days) while continuing ad libitum access to the HFD. Total cholesterol and low-density lipoprotein (LDL) cholesterol were measured at Day 0 and Day 84. Data from the treated group were compared to the control group using Wilcoxon rank sum analyses. Significance was defined as a P value less than or equal to 0.05.

[4] = tested on: HDF3CGF system: dermal fibroblasts (IFNγ, TNFα, IL-1β, EGF, bFGF, PDGF-BB); experiment: BioMAP Diversity PLUS, HDF3CGF system; assay type: cell-based, human; settings: HD3CGF (so in the source)
Excerpt: as §1, §2, §3, §4

CCCCCCCCCCCCCCC(=O)O [Pentadecanoic acid, pentadecanoic acid]
Secreted IgG (FIG. 2) ([1]; 168 hours incubation, 6.7 μM and 20 μM bioactive, vs controls): dose-dependent decreases
Cytotoxicity ([1]; all four concentrations (740 nm and 2.2, 6.7, and 20 μM)): non-cytotoxic
Significant log10 reduction vs nontreated controls: Secreted interleukin 17A (IL-17A) ([2]; 2.2 μM): −0.25 log10
Significant log10 reduction vs nontreated controls: Secreted interleukin 17F (IL-17F) ([2]; 2.2 μM): −0.16 log10
Significant log10 reduction vs nontreated controls: Secreted immunoglobulin G (IgG) ([2]; 6.7 μM): −0.17 log10
Significant log10 reduction vs nontreated controls: Secreted immunoglobulin G (IgG) ([2]; 20.0 μM): −0.55 log10
Significant log10 reduction vs nontreated controls: Secreted interleukin 6 (IL-6) ([2]; 20.0 μM): −0.29 log10
Significant log10 reduction vs nontreated controls: Secreted interleukin 17A (IL-17A) ([2]; 20.0 μM): −0.29 log10
Significant log10 reduction vs nontreated controls: Secreted interleukin 17F (IL-17F) ([2]; 20.0 μM): −0.18 log10
Tolerability of test article ([3]; 5 mg/kg daily gavage, 12 weeks, HFD mice): tolerated the test article throughout the study
Total Cholesterol ([3]; Index at Day 84, 5 mg/kg dose daily via gastric gavage for 12 weeks, HFD mice, P 0.032 vs HFD control): 183 + 25 mg/dl
LDL Cholesterol ([3]; Index at Day 84, 5 mg/kg dose daily via gastric gavage for 12 weeks, HFD mice, P 0.036 vs HFD control): 6.3 ± 3.6 mg/dL
Percent body weight gain compared to control mice on high fat diet alone ([3]; oral daily for 12 weeks, obese mice on high fat diet): lower percent body weight gain
Early mortalities ([3]; treated group, 5 mg/kg daily gavage, 12 weeks): no early mortalities
Significant log10 reduction vs nontreated controls: 72-hour fibroblast proliferation ([4]; 6.7 μM): −0.67 log10
Significant log10 reduction vs nontreated controls: Collagen I ([4]; 6.7 μM): −0.07 log10
Significant log10 reduction vs nontreated controls: Plasminogen activation inhibitor 1 (PAI-1) ([4]; 6.7 μM): −0.08 log10
Significant log10 reduction vs nontreated controls: 72-hour fibroblast proliferation ([4]; 20.0 μM): −1.1 log10
Significant log10 reduction vs nontreated controls: Collagen I ([4]; 20.0 μM): −0.13 log10
Significant log10 reduction vs nontreated controls: Collagen III ([4]; 20.0 μM): −0.13 log10
Significant log10 reduction vs nontreated controls: Interferon gamma-induced protein 10 (IP-10)/CXCL10 ([4]; 20.0 μM): −0.14 log10
Significant log10 reduction vs nontreated controls: Interferon-inductible T cell alpha chemoattractant (I-TAC)/CXCL11 ([4]; 20.0 μM): −0.17 log10
Significant log10 reduction vs nontreated controls: Monokine induced by gamma interferon (MIG)/CXCL9 ([4]; 20.0 μM): −0.10 log10
Significant log10 reduction vs nontreated controls: Plasminogen activation inhibitor 1 (PAI-1) ([4]; 20.0 μM): −0.13 log10
Significant log10 reduction vs nontreated controls: Vascular cell adhesion molecule 1 (VCAM-1) ([4]; 20.0 μM): −0.28 log10
